Results from patent US20230398106A1 (NEURORIVE INC, priority 2020, published 2023).

System: 5×FAD mouse
Experiment: Morris water maze (MWM) task in 5×FAD mice
Type: in vivo
Description: A Morris water maze (MWM) task was conducted to examine an effect on improving cognitive function depending on the administration of the complex composition of the present invention. […] The above markers remained unchanged throughout the test period. The escape platform was placed 1 cm above the water surface or 0.5 to 1.5 cm below the water surface according to the purpose of the experiment. When placed under the water surface, the water was made opaque with white water-based paint so that the escape platform was not visible to the eye. The Morris water maze was divided into four quadrants, i.e., northeast (NE), northwest (NW), southeast (SE) and southwest (SW), wherein the escape platform was placed in the center of the southwest quadrant, and the mouse started randomly from one of the others.
The escape platform was made visible on Learning DAY 0. Each mouse was trained to recognize that it was possible to escape when they swam toward the escape platform and landed thereon. On DAY 1-4, the escape platform was hidden by being placed under the water, and then the mice learned the position of the escape platform. […] The mice were then immediately transferred to the breeding cage. On DAY 5, the probe test was performed without the escape platform. The probe test was performed by placing the mouse in the farthest part of the quadrant where the escape platform was placed during the training day, and 60 seconds was set as the time limit. The indexes of cognitive function include the escape latency which is the time required for the mouse to find the escape platform and the time spent in the quadrant where the escape platform was placed. It was judged that the shorter the time it takes to escape (FIG. 2A) and the longer the mouse stays in the quadrant where the escape platform was placed (FIG. 2B), the better the memory and learning ability of the mouse.
Then, each group was subjected to oral administration for 4 weeks to perform the experiment.

**Q.** What does the source list for `COc1cc2c(cc1OC)C(=O)C(CC1CCN(Cc3ccccc3)CC1)C2` (stereo not drawn) [Donepezil, donepezil]?
**A.** escape latency reduced by, based on the mutant mouse vehicle group (2 mg/kg of donepezil alone, reduction stated in text): 14.2%; Escape latency (Increase or decrease compared to mutated mouse vehicle group) (Mutated mouse, Donepezil 2 mg/kg oral, 4 weeks, DAY 4): −14.2%; time spent in the target quadrant (Increase or decrease compared to mutated mouse vehicle group) (Mutated mouse, donepezil 2 mg/kg oral, 4 weeks, probe test DAY 5): 73.20%
